In ChEMBL document CHEMBL1201862, “PubChem BioAssay data set” (2004):
Each block holds one molecule with its values, some of them ahead of it. The source made the active and inactive calls.

Tests used:
[1] = HIV-1 Vif–A3G interaction blockers – biochemical, TR-FRET, GST-Vif 1-94, biotin-A3G peptide, dose response retest, primary screen (AID 1117319); assay type: functional;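 also: TR-FRET signal of purified GST-Vif binding a biotinylated A3G peptide; inhibitors lower the FRET signal by blocking Vif and A3G binding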
NADPH oxidase 1 = NADPH oxidase 1 (Homo sapiens, UniProt Q9Y5S8); test: Luminescence-based cell-based dose response assay to identify inhibitors of NADPH oxidase 1 (NOX1).; assay type: functional
[2] = molecular target: T1, Neuropeptide Y receptor type 1 (Homo sapiens, UniProt P25929); test: Fluorescence-based dose response cell-based high-throughput screening assay for potentiators or agonists of NPY-Y1.; assay type: functional
T1 sequence (P25929 whole entry): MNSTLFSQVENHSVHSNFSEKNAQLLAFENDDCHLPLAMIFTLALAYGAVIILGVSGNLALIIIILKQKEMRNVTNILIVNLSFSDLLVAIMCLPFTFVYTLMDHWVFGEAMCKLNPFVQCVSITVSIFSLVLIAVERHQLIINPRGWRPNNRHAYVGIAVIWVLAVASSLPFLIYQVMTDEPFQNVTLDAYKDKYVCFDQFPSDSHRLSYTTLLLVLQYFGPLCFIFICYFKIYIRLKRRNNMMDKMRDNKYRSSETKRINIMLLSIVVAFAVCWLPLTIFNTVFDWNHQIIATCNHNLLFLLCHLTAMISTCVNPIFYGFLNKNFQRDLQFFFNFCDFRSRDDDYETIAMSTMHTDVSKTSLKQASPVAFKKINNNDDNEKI

[3] = inhibition of ADAM10 peptide cleavage – biochemical, FRET peptide substrate, recombinant human ADAM10, selectivity assay for ADAM17 exosite inhibitor project, dose response (AID 743259);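 also: ADAM10 enzyme cleaving a FRET peptide substrate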
[4] = molecular target: Heat shock protein HSP 90-alpha (Homo sapiens, UniProt P07900); assay type: functional, organism-based
[5] = molecular target: T2, Neuropeptide Y receptor type 2 (Homo sapiens, UniProt P49146); test: Fluorescence counterscreen for potentiators or agonists of NPY-Y1: Cell-based high-throughput dose response assay for potentiators or agonists of NPY-Y2.; assay type: functional
T2 sequence (P49146 whole entry): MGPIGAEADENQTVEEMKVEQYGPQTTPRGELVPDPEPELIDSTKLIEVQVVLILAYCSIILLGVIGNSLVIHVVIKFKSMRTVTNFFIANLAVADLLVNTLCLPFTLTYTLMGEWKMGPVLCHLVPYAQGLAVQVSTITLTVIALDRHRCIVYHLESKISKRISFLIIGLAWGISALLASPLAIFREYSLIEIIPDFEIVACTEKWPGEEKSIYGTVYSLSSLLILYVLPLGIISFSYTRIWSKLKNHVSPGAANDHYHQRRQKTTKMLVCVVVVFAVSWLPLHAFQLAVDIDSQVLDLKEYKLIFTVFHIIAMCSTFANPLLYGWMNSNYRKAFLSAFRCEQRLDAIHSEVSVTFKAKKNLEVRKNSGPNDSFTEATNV

HEK293 = test: Fluorescence-based counterscreen for potentiators or agonists of NPY-Y1: cell-based high-throughput dose response assay for inhibitors of cyclic nucleotide gated ion channel (CNGC) activity. In this assay, the parental HEK293 cell line transfected with a cyclic-nucleotide gated ion channel (CNGC)-based cAMP sensor is used to measure inhibition of isoproterenol-induced CNGC …; assay type: functional; details: Homo sapiens
[6] = HGIII-sPLA2 enzyme inhibition potency – biochemical, QFRET, IC50, dose response (AID 743457);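 also: green fluorescence rise as the enzyme cleaves BODIPY PC-A2 in liposomes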
[7] = molecular target: T3, Mannose-6-phosphate isomerase (Homo sapiens, UniProt P34949); test: MPI inhibition at elevated mannose 6-phosphate – biochemical, fluorescence intensity, high mannose 6-phosphate, primary screen (AID 1220)
T3 sequence (P34949 whole entry): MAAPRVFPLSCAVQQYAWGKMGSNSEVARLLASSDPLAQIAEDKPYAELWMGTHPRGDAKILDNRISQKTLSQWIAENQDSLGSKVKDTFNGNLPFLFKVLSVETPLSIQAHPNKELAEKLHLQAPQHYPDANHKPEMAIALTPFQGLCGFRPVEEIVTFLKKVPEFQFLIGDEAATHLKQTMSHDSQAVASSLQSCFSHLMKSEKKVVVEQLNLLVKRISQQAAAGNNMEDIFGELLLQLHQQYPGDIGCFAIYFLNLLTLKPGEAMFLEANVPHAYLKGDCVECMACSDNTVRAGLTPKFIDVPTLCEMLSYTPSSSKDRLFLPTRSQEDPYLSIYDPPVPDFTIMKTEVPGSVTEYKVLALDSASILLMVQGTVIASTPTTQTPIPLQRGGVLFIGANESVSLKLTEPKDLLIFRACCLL

[8] = molecular target: T1, Neuropeptide Y receptor type 1; test: Fluorescence-based dose response cell-based high-throughput screening assay for agonists of NPY-Y1. [Related pubchem assays: 1697 (Screening assay (NPY-Y1 agonists).), 1359 (Screening assay (NPY-Y2 potentiators or agonists).), 1304 (Screening assay (NPY-Y1 potentiators or agonists).), 1704 (Screening assay (CNGC inhibitors).), 1791 (Summary AID.)]; assay type: functional
[9] = molecular target: Disintegrin and metalloproteinase domain-containing protein 17 (Homo sapiens, UniProt P78536); test: exosite inhibitors of ADAM17, dose response, biochemical (AID 743260)
[10] = molecular target: T2, Neuropeptide Y receptor type 2; test: Fluorescence-based counterscreen for agonists of NPY-Y1: cell-based high-throughput dose response assay for agonists of NPY-Y2.; assay type: functional
[11] = molecular target: Lytic switch protein BZLF1 (Epstein-Barr virus (strain B95-8) (HHV-4) (Human herpesvirus 4), UniProt P03206); test: inhibition of BZLF1 ZTA DNA binding – biochemical, fluorescence polarization, Epstein-Barr virus, 1536-well, counter-screen for EBNA-1 inhibitor project, dose response (AID 2377); set-up: species or system human gammaherpesvirus 4;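 also: fluorescence polarization of Cy5-labelled ZRE DNA probe bound by purified Zta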
[12] = molecular target: Epstein-Barr nuclear antigen 1 (Epstein-Barr virus (strain B95-8) (HHV-4) (Human herpesvirus 4), UniProt P03211); test: inhibition of EBV nuclear antigen 1 DNA binding – biochemical, fluorescence polarization, 1536-well, dose response (AID 2381); set-up: species or system human gammaherpesvirus 4;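 also: fluorescence polarization of a Cy5 DNA probe bound by EBNA-1 protein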
[13] = molecular target: Alkaline phosphatase, placental type (Homo sapiens, UniProt P05187); test: human placental alkaline phosphatase inhibition – biochemical, luminescence, confirmation (AID 1512); assay type: functional
Bcl-2-like protein 1 = Bcl-2-like protein 1 (Homo sapiens, UniProt Q07817); test: blockers of BCLXL peptide binding – biochemical, fluorescence polarization, 1536-well, selectivity assay for MCL1 inhibitor project, dose response (AID 2218)
[14] = molecular target: T4, Histone-lysine N-methyltransferase NSD2 (Homo sapiens, UniProt O96028); assay type: biochemical
T4 sequence (O96028 whole entry): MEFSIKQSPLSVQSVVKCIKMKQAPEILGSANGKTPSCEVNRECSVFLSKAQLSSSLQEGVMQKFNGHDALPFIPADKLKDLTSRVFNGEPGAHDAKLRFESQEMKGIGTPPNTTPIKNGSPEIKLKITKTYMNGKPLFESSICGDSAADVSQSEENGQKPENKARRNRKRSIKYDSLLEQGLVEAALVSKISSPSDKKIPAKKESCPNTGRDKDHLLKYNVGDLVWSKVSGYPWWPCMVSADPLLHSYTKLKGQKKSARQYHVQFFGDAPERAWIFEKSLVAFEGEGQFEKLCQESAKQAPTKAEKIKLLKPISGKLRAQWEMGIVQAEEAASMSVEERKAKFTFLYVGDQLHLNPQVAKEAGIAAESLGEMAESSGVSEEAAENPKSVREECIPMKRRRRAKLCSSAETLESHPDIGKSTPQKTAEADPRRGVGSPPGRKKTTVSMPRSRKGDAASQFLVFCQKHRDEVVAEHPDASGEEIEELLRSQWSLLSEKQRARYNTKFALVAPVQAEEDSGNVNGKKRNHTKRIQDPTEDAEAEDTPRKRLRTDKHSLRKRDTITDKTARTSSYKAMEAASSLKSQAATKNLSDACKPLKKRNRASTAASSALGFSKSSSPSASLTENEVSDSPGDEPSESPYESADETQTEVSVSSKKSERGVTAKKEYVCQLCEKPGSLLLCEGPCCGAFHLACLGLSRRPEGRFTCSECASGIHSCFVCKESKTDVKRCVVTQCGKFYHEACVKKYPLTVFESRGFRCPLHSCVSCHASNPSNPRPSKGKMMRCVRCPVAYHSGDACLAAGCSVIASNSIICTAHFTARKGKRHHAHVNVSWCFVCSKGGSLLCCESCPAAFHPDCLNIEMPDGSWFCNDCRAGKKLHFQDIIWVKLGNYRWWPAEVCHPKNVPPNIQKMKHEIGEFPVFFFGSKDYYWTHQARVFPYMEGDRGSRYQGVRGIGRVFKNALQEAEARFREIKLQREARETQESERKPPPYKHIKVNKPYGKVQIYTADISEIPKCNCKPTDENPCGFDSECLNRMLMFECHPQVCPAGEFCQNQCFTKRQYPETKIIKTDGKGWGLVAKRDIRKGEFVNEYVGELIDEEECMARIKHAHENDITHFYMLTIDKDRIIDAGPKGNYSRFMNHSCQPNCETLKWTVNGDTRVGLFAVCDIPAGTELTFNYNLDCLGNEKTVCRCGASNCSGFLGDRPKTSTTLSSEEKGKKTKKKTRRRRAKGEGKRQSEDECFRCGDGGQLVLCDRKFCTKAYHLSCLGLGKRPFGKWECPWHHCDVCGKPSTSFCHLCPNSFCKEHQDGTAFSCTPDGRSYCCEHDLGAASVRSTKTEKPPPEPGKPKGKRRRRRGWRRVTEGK

[15] = molecular target: Induced myeloid leukemia cell differentiation protein Mcl-1 (Homo sapiens, UniProt Q07820); test: blockers of MCL1 binding to BIM peptide – biochemical, fluorescence polarization, BIM-BH3 peptide, 1536-well, dose response (AID 2217)
[16] = molecular target: T5, Alkaline phosphatase, tissue-nonspecific isozyme (Homo sapiens, UniProt P05186); test: potency against alkaline phosphatase TNAP – biochemical, luminescent, dose response, SAR follow-up (AID 1056)
T5 sequence (P05186 whole entry): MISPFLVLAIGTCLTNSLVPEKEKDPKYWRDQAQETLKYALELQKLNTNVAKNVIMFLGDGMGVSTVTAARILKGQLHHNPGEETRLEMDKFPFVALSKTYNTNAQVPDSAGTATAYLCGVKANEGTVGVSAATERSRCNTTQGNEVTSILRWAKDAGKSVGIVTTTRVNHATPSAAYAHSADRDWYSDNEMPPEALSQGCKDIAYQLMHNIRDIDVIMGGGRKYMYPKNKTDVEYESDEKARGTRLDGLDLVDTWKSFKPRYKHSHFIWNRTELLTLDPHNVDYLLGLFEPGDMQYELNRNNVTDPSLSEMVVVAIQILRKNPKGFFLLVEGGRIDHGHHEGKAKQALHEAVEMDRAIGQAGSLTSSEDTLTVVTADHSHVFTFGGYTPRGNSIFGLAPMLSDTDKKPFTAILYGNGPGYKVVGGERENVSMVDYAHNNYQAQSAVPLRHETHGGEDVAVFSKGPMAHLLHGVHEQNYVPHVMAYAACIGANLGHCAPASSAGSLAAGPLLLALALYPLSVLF

Large T antigen = Large T antigen (Simian virus 40, UniProt P03070); assay type: functional, Betapolyomavirus macacae;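 also: Confirmatory-stage PubChem screen for compounds that inhibit SV40 T antigen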
[17] = molecular target: Sphingosine 1-phosphate receptor 2 (Homo sapiens, UniProt O95136); test: Dose Response Cell Based Assay for Agonists of the S1P2 Receptor of Purchased Analogues. [Related pubchem assays: 729, 843, 854, 736 ]; assay type: functional
[18] = NIH3T3 cell viability loss – ATP luminescence, mouse fibroblasts, counter-screen, dose response (AID 2010); assay type: functional, cell-based;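 also: cells exposed to compound for about 90 hours before reading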
[19] = Trypanosoma cruzi growth suppression in host cells – NIH3T3 host cells, beta-gal luminescence, confirmation (AID 2044); assay type: functional, cell-based;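 also: intracellular parasites grown in NIH/3T3 mouse fibroblasts as host cells; luminescent beta-galactosidase reporter signal from transgenic T. cruzi replicating inside host cells; inhibitors lower the luminescence signal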

Sequence of Lytic switch protein BZLF1 (P03206 whole entry): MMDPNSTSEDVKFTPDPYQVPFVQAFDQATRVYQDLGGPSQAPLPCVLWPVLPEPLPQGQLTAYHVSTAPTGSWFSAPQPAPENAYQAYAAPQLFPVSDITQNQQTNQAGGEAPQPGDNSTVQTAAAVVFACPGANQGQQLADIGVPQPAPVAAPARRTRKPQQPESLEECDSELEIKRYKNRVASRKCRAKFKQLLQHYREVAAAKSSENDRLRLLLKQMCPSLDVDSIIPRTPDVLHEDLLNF
Sequence of Alkaline phosphatase, placental type (P05187 whole entry): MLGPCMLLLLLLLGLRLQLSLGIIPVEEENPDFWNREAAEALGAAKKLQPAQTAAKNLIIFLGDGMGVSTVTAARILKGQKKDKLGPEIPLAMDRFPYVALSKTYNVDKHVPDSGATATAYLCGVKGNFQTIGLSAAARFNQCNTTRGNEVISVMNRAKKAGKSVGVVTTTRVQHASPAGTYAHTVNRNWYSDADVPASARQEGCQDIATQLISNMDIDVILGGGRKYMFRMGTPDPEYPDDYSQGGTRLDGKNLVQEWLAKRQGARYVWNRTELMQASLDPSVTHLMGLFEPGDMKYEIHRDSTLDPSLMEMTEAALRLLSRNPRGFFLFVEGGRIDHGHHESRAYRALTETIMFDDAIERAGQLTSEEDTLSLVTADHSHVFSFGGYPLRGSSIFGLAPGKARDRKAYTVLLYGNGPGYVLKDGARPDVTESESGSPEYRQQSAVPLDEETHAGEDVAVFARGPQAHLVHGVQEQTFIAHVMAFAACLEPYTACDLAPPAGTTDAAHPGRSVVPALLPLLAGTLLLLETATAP
Sequence of Induced myeloid leukemia cell differentiation protein Mcl-1 (Q07820 whole entry): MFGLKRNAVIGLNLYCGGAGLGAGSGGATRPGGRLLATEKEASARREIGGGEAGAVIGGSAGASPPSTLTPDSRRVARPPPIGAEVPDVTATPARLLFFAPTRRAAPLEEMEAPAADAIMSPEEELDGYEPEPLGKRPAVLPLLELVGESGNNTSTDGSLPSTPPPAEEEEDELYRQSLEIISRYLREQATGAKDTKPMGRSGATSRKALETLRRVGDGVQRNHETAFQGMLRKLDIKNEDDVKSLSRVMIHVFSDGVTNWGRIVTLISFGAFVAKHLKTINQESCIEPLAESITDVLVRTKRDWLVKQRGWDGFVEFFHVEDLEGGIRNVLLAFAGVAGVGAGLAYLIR
Sequence of Epstein-Barr nuclear antigen 1 (P03211 whole entry): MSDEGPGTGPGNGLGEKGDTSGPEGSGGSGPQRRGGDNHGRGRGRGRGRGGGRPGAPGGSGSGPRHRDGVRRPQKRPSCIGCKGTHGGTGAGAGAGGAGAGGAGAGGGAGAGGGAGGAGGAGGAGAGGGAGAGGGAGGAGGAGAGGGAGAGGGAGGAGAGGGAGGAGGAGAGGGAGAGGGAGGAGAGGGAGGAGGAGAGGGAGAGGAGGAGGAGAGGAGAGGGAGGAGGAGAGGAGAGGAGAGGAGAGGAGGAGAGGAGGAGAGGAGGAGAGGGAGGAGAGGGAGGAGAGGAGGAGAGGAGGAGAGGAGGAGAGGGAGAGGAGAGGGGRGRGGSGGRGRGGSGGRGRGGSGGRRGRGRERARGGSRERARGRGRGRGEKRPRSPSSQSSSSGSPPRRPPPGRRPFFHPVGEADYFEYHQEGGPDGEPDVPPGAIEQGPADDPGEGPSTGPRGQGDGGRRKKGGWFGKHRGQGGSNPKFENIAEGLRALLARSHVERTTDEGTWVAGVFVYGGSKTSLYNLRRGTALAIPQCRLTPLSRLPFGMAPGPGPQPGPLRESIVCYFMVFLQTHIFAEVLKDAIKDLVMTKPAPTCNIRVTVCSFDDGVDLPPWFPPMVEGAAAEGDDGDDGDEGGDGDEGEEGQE
Sequence of Bcl-2-like protein 1 (Q07817 whole entry): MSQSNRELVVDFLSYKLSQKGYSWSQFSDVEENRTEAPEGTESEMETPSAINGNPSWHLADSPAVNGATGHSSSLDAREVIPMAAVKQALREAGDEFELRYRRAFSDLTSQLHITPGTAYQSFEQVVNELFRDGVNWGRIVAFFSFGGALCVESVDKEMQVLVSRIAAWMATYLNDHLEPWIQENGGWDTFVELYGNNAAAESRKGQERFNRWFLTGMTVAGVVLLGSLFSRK
Sequence of Disintegrin and metalloproteinase domain-containing protein 17 (P78536 whole entry, the tested form may be a part): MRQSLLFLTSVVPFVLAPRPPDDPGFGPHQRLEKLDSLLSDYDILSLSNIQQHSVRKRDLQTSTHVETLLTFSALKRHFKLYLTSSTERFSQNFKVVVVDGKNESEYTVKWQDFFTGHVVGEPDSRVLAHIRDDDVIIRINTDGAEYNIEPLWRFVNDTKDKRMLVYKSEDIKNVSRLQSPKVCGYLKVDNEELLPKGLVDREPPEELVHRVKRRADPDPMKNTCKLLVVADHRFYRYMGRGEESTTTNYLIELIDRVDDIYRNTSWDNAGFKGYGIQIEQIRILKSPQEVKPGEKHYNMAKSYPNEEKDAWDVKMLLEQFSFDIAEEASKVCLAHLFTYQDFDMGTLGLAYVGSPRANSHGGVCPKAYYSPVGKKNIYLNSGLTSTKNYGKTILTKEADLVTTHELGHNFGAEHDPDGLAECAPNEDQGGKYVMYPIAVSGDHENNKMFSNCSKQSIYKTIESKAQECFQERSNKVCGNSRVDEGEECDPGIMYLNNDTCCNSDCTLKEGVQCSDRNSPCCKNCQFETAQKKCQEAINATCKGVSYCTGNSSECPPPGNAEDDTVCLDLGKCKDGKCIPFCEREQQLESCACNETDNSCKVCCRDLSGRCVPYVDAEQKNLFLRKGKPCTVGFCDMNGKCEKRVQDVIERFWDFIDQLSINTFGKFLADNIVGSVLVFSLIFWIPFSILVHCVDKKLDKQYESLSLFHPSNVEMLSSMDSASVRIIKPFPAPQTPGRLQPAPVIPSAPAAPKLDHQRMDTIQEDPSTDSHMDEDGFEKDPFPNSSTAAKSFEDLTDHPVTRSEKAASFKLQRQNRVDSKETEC
Sequence of Sphingosine 1-phosphate receptor 2 (O95136 whole entry): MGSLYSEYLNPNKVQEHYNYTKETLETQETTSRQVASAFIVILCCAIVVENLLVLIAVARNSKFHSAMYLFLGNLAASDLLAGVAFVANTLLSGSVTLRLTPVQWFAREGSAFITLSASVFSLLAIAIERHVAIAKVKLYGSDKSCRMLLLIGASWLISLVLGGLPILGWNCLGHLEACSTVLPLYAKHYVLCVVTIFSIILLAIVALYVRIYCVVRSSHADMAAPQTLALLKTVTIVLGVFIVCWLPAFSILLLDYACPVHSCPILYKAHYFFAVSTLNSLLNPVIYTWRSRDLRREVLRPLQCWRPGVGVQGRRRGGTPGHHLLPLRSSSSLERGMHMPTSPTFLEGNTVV
Sequence of Large T antigen (P03070 whole entry): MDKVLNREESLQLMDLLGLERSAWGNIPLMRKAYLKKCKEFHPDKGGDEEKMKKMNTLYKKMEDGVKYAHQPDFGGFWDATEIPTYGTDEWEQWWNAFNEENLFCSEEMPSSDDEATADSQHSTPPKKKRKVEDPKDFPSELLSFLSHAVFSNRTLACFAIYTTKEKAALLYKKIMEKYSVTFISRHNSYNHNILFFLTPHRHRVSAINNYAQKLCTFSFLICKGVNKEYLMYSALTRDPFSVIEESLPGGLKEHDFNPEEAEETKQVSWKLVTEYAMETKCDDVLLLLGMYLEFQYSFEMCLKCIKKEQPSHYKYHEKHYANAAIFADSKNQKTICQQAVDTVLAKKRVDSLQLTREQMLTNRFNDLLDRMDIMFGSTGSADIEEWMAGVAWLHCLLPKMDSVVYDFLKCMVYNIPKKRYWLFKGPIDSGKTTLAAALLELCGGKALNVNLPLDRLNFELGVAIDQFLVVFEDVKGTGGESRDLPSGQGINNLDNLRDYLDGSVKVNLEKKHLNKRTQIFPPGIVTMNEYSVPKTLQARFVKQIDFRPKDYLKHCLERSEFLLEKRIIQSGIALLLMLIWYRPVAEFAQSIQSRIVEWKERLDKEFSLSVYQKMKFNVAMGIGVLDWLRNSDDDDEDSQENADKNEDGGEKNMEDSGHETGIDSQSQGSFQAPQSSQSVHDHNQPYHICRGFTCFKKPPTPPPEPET
Sequence of NADPH oxidase 1 (Q9Y5S8 whole entry): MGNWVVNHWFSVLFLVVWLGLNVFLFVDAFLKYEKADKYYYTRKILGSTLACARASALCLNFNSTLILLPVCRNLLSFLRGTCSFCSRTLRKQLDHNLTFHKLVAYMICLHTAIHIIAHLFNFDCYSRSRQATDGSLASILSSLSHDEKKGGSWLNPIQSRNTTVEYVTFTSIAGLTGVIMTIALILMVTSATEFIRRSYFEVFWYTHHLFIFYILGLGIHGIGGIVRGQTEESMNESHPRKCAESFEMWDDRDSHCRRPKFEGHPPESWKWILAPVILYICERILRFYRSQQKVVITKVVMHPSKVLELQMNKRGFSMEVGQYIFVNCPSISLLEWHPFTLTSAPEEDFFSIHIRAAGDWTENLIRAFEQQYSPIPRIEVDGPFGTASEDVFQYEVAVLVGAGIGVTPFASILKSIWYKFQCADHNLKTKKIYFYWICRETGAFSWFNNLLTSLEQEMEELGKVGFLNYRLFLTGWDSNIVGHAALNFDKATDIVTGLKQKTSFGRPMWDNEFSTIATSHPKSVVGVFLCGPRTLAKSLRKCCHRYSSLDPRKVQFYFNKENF

IC50 [1]: > 51.6 µM (active)
IC50 (NADPH oxidase 1): 0.048 µM (active)
Structure (SMILES): CN(C)c1ccc(NC(=O)Nc2cccc(Cl)c2)cc1

Structure (SMILES): CC(C)/N=c1\scc(-c2cccs2)n1/N=C/c1ccc(O)c(O)c1O
EC50 [2]: > 35.4 µM (not active)
IC50 [3]: 12.8 µM (inactive)
AC50 [4]: 3.46 µM (active)
EC50 [5]: 22 µM (not active)
IC50 (HEK293): > 35.4 µM (not active)
IC50 [6]: 41.3 µM (inactive)
IC50 [7]: > 50 µM (not active)
EC50 [8]: > 3.94 µM (active)
IC50 [9]: 31.2 µM (inactive)
EC50 [10]: 24.3 µM (not active)

IC50 [11]: > 111 µM (not active)
IC50 [12]: 16.1 µM (not active)
Structure (SMILES): c1ccc(-c2ccc(C3=Nn4c(nnc4-c4cc(-c5ccccc5)[nH]n4)SC3)cc2)cc1

IC50 [13]: 2.92 µM (active)
IC50 (Bcl-2-like protein 1): > 109 µM (not active)
AC50 [14]: 4.18 µM (active)
IC50 [15]: 9.37 µM (active)
IC50 [16]: 22.2 µM (active)
IC50 (Large T antigen): 14.5 µM (active)
Structure (SMILES): C=CCn1c(SCC(=O)c2ccc(O)c(O)c2)nnc1-c1cccnc1

EC50 [17]: > 30 µM (not active)
Structure (SMILES): Cc1cc(C(=O)COC(=O)C2CCC2)c(C)n1Cc1ccccc1

Structure (SMILES): CC(C)Cc1ccc(CN2CCCC(NC(=O)CSc3nncn3C)C2)cc1 (centres undefined)
EC50 (cells): 0.071 µM (active)
EC50 [18]: > 60 µM (not active)
EC50 [19]: < 0.1 µM (active)
